{"source": "patent US20100048594A1", "about": "“USE OF CYTOHESIN INHIBITORS FOR CHEMICALLY INDUCING LONGEVITY” (RHEINISCHE FRIEDRICH-WILHELMS UNIVERSITAT, priority 2006, published 2010)", "key": {"[1]": {"tested_on": "Drosophila eukaryotic initiation factor 4E binding protein (d4EBP, Thor)", "experiment": "Transcription rate of insulin target gene d4EBP in insulin-treated Drosophila S2 cells (real-time PCR)", "type": "cell-based", "conditions": "100 μM compound, 10 μg/ml human insulin, insulin alone less than 35%", "description": "Drosophila Schneider 2 (S2) cells were cultivated in Schneider's Medium (PAN company) with 10% heat-inactivated fetal calf serum (FCS). 2×10^6 cells were drawn into 35 mm vessels at 25° C. to 80% confluence, washed one time in phosphate buffered saline solution (1×PBS, Gibco), and transferred for twelve hours to Schneider's Medium, without FCS. The cells were then preincubated for two hours with 0.5% DMSO containing Schneider's Medium, without FCS, with or without the compound according to formula (9) or formula (25), with the final concentrations of the compounds according to formulas (9) and (25) being 1 μM, 10 μM and 100 μM. This was followed by a four-hour stimulation with 10 μg/ml human insulin (Sigma).\nAfter washing the cells two times with PBS, total RNA was then isolated from the cells using the NucleoSpin RNA II Kit (Macherey & Nagel), according to the manufacturer's instructions. The first strain cDNA synthesis was performed with every 500 ng RNA, using the QuantiTect Reverse Transcription Kit (Qiagen), according to the manufacturer's instructions. […]\nThe activity of the insulin signaling pathway was determined from the transcription rate of the insulin target gene Drosophila eukaryotic initiation factor 4E binding protein (d4EBP, Thor). […]"}, "FoxO1A": {"tested_on": "FoxO1A", "experiment": "Insulin-dependent phosphorylation of FoxO1A in HepG2 cells", "type": "cell-based, human", "conditions": "HepG2 cells, 5, 10, 15 μM compound, 100 nM insulin; based upon concentration"}, "4E-BP": {"tested_on": "4E-BP", "experiment": "Expression of insulin-repressed gene 4E-BP in fed Drosophila larvae (real-time PCR)", "type": "in vivo", "conditions": "10 mg compound per 1 g brewer's yeast, 3 days", "description": "(§1) Three groups of 100 Drosophila larvae received 10 mg of the compound according to formula (9) mixed with 1 g autoclaved and pulverized brewer's yeast (Brewferm), while three control groups of 100 animals each received the uncut brewer's yeast. This food was administered on water-impregnated filters (Macherey-Nagel) for 3 days at 25° C.\n(§2) In each case, more than 10 animals of the group were washed thoroughly with water, placed in lysate buffer (NucleoSpin RNA II kit, Macherey & Nagel), and homogenized for 1 minute at maximum speed (Ultra-Turrax T25basic). Total RNA was isolated using the NucleoSpin RNA II Kit (Macherey & Nagel, including DNase I-treatment on the column).\n(§3) cDNA was produced from each 500 ng total RNA using the QuantiTect Reverse Transcription Kit (Qiagen), according to the manufacturer's instructions, including DNase I treatment. PCR was performed in batches with a total volume of 25 μl (iQ5 Real Time PCR Detection System, BioRad). The batches contained 1 μl of the cDNA batch, in each case 200 nM and 3′- and 5′-primer (Metabion) 12.5 μl 2×iQ5 SYBR Green Supermix (BioRad).\n(§4) The PCR program that was used comprised 40 cycles with the following steps: 15 seconds denaturing at 95° C., 30 seconds annealing at 59° C. and 30 seconds extension at 72° C. Evaluation was carried out using the iQ5 Optical System software (Version 1.1.1442.OCR, BioRad). […]"}, "[2]": {"tested_on": "genes that are controlled via the PI3K-dependent pathway of the insulin receptor signaling pathway", "experiment": "Expression of insulin-regulated gluconeogenic and glycolytic genes in mouse liver after feeding (quantitative PCR)", "type": "in vivo, C57BL/6 mice", "conditions": "food with 0.9 μmol/g compound for 3 days, 40 μg insulin i.p.", "description": "(§5) C57BL/6 mice (Charles River Laboratories) that had been kept in a pathogen-free animal facility, maintaining a 12-hour light/dark cycle, were used. The animals received standard mouse food (19% protein, 3.3% fat, 41.3% carbohydrates; ssniff Spezialdiäten GmbH) ad libitum. Male animals between the ages of 8 and 12 weeks were used.\nA group of 6 C57BL/6 mice received standard mouse food mixed with 0.9 μmol/g of the compound according to formula (9) for a period of 3 days, while a control group of 6 animals received standard mouse food. The animals were then injected intraperitoneally with 100 μl normal saline solution (control group) or saline solution with 40 μg recombinant human insulin (Sigma). […]\nTotal RNA from 15 mg mouse liver in each case was isolated using the Absolutely RNA Kit (Stratagene) and the cDNA was produced via the reverse transcription of 2 μg RNA using the High Capacity cDNA Archive Kit (Applied Biosystems), according to the manufacturer's instructions. Quantitative PCR was performed in 10 μl batches in an iQ5-Cycler (BioRad) by means of the TaqMan Gene Expression Assay (Applied Biosystems) using primers (Applied Biosystems), against lgfbp1, Fbp2, Pck1, Pck2, G6 pc, Hk2, Pklr, Gck, Gckr, according to the manufacturer's instructions. […]"}, "Akt": {"tested_on": "Akt", "experiment": "Insulin-stimulated phosphorylation of Akt in mouse liver after feeding (immunoblot)", "type": "in vivo, C57BL/6 mice", "conditions": "food with 0.9 μmol/g compound for 3 days, 40 μg insulin i.p.", "description": "as §5\nA group of 6 C57BL/6 mice received standard mouse food mixed with 0.9 μmol/g of the compound according to formula (9) for a period of 3 days, while a control group of 6 animals received standard mouse food. The animals were then injected intraperitoneally with 100 μl normal saline solution (control group) or saline solution with 40 μg recombinant human insulin (Sigma). After 10 minutes the mice were anesthetized, the livers were removed and were lysed in lysate buffer (20 mM Tris-Cl, pH 7.5, 150 mM NaCl, 1 mM EDTA, 1 mM EGTA, 2.5 mM sodium pyrophosphate, 1 mM β-glycerophosphate, 1 mM sodium vanadate, 1% Triton X-100) and protease inhibitor mix HP (Serva).\nFurther, standardized quantities of protein were separated out using SDS-PAGE, and this protein was identified via immunoblotting, after being transferred to nitrocellulose membranes, with an antibody, against the phosphorylated protein Akt, pAkt (Thr308) (cell signaling). Visualization and evaluation were performed as described in Example 2."}, "1nR (insulin receptor)": {"tested_on": "1nR (insulin receptor)", "experiment": "Expression of insulin-repressed gene 1nR (insulin receptor) in fed Drosophila larvae (real-time PCR)", "type": "in vivo", "conditions": "10 mg compound per 1 g brewer's yeast, 3 days", "description": "as §1, §2, §3, §4"}}, "data": [{"smiles": "COc1nc(-c2ccc3c(c2)OCO3)n(-c2ccc(NC(=O)CSc3ccccc3)cc2)n1", "note": "[Compound (9)]", "values": [{"measurement": "transcription rate of d4EBP as % of that of the untreated control groups", "setting": "[1]", "result": "more than 85%"}, {"measurement": "insulin-dependent phosphorylation of FoxO1A", "setting": "FoxO1A", "result": "inhibited"}, {"measurement": "expression of insulin-repressed gene 4E-BP", "setting": "4E-BP", "result": "more than four times"}, {"measurement": "expression of the glycolytic gene induced by insulin", "setting": "[2]", "result": "decreased to a statistically significant degree"}, {"measurement": "expression of the studied gluconeogenic gene, suppressed by insulin", "setting": "[2]", "result": "increased"}, {"measurement": "inhibition of the phosphorylation of the protein Akt stimulated by insulin", "setting": "Akt", "result": "approximately 40%"}, {"measurement": "expression of insulin-repressed gene 1nR (insulin receptor)", "setting": "1nR (insulin receptor)", "result": "more than double"}]}]}
